Like-named read-outs stand apart in the source and are kept apart here.
How the values were obtained:
GLUT4 = test: GPBP-1 and GLUT4 distribution in C2C12 cells (FIGS. 77 and 78); format: cell-based, Mice
Protocol: FIG. 77. Effects of no treatment, insulin, SLN1, SLN1 and insulin, SLN10, and SLN10 and insulin on GPBP-1 and GLUT-4 distribution in non-fused C2C12 cells after a 30 minute treatment.
FIG. 78. C2C12 cells that expressed GLUT4-GFP constitutively were incubated with SLN1 or SLN10 10 mM, or with the corresponding vehicle (control), and GLUT4 distribution was analyzed by using immunofluorescence and confocal microscopy.

[1] = system: GPBP, LKB1/STRADα/MO25, AMPK, AS160; test: In vitro phosphorylation of GPBP with LKB1 complex, AMPK and AS160; conditions: LKB1 complex without GPBP
C2C12 myotubes = test: Glucose in C2C12 myotubes cultured with M1 macrophage conditioned medium; format: cell-based, Mice; conditions: macrophages treated with 10 mM; glucose adjusted to 100 mg/100 mL (FIG. 95)
Protocol: FIG. 95. C2C12 myotubes, treated with a conditioned RAW264.7 M1 macrophages medium (stimulated with LPS and IFN-γ [M1]), accumulate glucose in the culture medium: SLN compounds reduce the “hyperglycemic” effect of the M1 medium. […]; then, the culture media were collected, and their glucose concentration adjusted to 100 mg/100 mL and used to culture C2C12 myoblasts that had been previously differentiated to myotubes in DMEM supplemented with 2% horse serum for 5 days. The glucose concentration in myotubes was determined at several times with a Glucocard (Arkray). C2C12 myotubes, cultured with conditioned media of non-stimulated (cells) macrophages, or similarly stimulated but not treated with a SLN (M1), were used as controls. The initial glucose levels (time 0) are used as a reference (100%) in each of the series.
[…]. Then the culture media were collected, their glucose concentration adjusted to 100 mg/100 mL and used to culture C2C12 myoblasts that had been previously differentiated to myotubes in DMEM supplemented with 2% horse serum for 5 days. The glucose concentration of the myotube cultures was determined at different times with Glucocard (Arkray). The controls used were the C2C12 cultured with media conditioned with no stimulated macrophages (cells) or with M1 conditioned media. The initial glucose levels (time 0) were used as a reference (100%) in each series.

[2] = for Body weight (g) On administration day / Body weight (g) On distribution day / Body weight (g) On first administration day: Mean ± SD; for Body weight (g) On distribution day: before dosing
blood glucose level = test: Effect of metformin compounds on the glucokinetic profile after oral glucose overload; format: in vivo, Rat; conditions: for blood glucose level vs vehicle, after the oral glucose overload: 750 mg/kg for five days, glucose 3 g/kg, isolated time points 0.25-4 hours, Dunn's test
[3] = rat, in vivo, po, 250 mg/kg
[4] = system: rat model of streptozotocin-induced diabetes; conditions: about 18 hours after last administration, fasted; Dunnet test
[5] = STZ-diabetic male rats, mean ± SD; for Absolute body weight, Day −3 (before STZ administration): baseline before STZ and before first TI/RI administration
[6] = terms of European Pharmacopeia 7.0 section 5.11
[7] = system: rat model of streptozotocin-induced diabetes; test: Blood glucose levels in rat model of streptozotocin-induced diabetes, 14 days oral; conditions: for Blood glucose levels before TI/RI administration, Day −3 (before STZ administration): rats, baseline before STZ and before first TI/RI administration
[8] = Groups L-U, 750 mg/kg, first column of this head
[9] = Groups L-U, 750 mg/kg, second column of this head
[10] = rat, 750 mg/kg referred to metformin base, mean ± SD, *p<0.05 vs vehicle
[11] = rat, 750 mg/kg referred to metformin base, mean ± SD
[12] = before first TI/RI administration

Compound | GLUT4 distribution (GLUT4) | Body weight (g) On administration day ([2]; Groups B-K, 250 mg/kg) [g] | Body weight (g) On distribution day ([2]; Groups B-K, 250 mg/kg) [g] | Body weight (g) On distribution day ([2]; Groups L-U, 750 mg/kg) [g] | Body weight (g) On first administration day [2, 8] [g] | Body weight (g) On first administration day [2, 9] [g] | blood glucose level vs vehicle, after the oral glucose overload (blood glucose level) | Blood glucose level, 0.25 h post-glucose overload (blood glucose level; [10]) [mg/dL] | Blood glucose level, 0.5 h post-glucose overload (blood glucose level; [11]) [mg/dL] | Blood glucose level, 2 h post-glucose overload (blood glucose level; [11]) [mg/dL] | Blood glucose level, 6 h post-glucose overload (blood glucose level; [11]) [mg/dL] | Blood glucose level, pre-glucose overload (blood glucose level; [10]) [mg/dL] | AUC(0-24) [3] [µg·h/mL] | Cmax [3] [µg/mL] | Metformin base concentration in plasma, 0.5 h post-administration [3] [µg/mL] | Metformin base concentration in plasma, 1 h post-administration [3] [µg/mL] | Metformin base concentration in plasma, 2 h post-administration [3] [µg/mL] | Metformin base concentration in plasma, 4 h post-administration [3] [µg/mL] | Metformin base concentration in plasma, 8 h post-administration [3] [µg/mL] | Metformin base concentration in plasma, 24 h post-administration [3] [µg/mL] | also measured
CN(C)C(=N)N=C(N)N [metformin, 3-(diaminomethylidene)-1,1-Dimethylguanidine] | levels lower than insulin |  |  |  |  |  |  |  |  |  |  |  |  |  |  |  |  |  |  |  | LKB1 autophosphorylation and STRADα phosphorylation [1]: trigger a discrete LKB1 autophosphorylation
Metformin glycinate | very intense accumulation of GLUT4 in the perinuclear region and in the plasma membrane |  |  |  |  |  |  |  |  |  |  |  |  |  |  |  |  |  |  |  | glucose concentration in myotubes kept in M1 macrophage-conditioned medium (C2C12 myotubes): kept values at “normoglycemic” levels
insulin: insulin, comparator for GLUT4 distribution | GLUT4 distribution to the cell membrane increased |  |  |  |  |  |  |  |  |  |  |  |  |  |  |  |  |  |  |  | 
CN(C)C(=N)NC(=N)N.NC(=O)C[C@H](N)C(=O)O [Metformin asparaginate, metformin asparaginate] |  | 191.98 ± 10.26 | 186.85 ± 11.32 | 188.40 ± 10.50 | 201.60 ± 5.61 | 196.93 ± 10.40 | statistically significant decreases | 94.50 ± 24.31 | 93.75 ± 19.14 | 80.00 ± 10.68 | 78.50 ± 16.03 | 86.50 ± 14.62 | 153.76 | 16.27 | 10.72 ± 2.33 | 8.40 ± 1.12 | 9.74 ± 1.24 | 16.27 ± 2.89 | 7.56 ± 1.49 | 0.39 ± 0.13 | Blood glucose level, 3 h post-glucose overload (blood glucose level; rat, 750 mg/kg referred to metformin base, 3 h post-glucose overload, mean ± SD, *p<0.05, **p<0.01 vs vehicle): 86.50 ± 2.65 mg/dL; Blood glucose level, 4 h post-glucose overload (blood glucose level; rat, 750 mg/kg referred to metformin base, 4 h post-glucose overload, mean ± SD, *p<0.05 vs vehicle): 87.00 ± 8.60 mg/dL; plasma glucose levels at the time of sacrifice [4]: significantly higher; Absolute body weight, Day −3 (before STZ administration) [5]: 233.47 ± 15.23 g; Absolute body weight, Day −1 [5, 12]: 209.73 ± 12.66 g; Absolute body weight, Day −2 (distribution of groups) [5, 12]: 214.13 ± 12.67 g; Physical form (hygroscopicity) [6]: Deliquescent; Blood glucose levels before TI/RI administration, Day −1 ([7]; STZ-diabetic rats, before first TI/RI administration, mean ± SD, n.d. = all values beyond ULOD of glucometer (600 mg/dl), § n=1, ¢ n=2): 573.00^§ ± n.d.^§ mg/dL; Blood glucose levels before TI/RI administration, Day −3 (before STZ administration) ([7]; mean ± SD): 116.33 ± 5.51 mg/dL
CN(C)C(=N)NC(=N)N.C[C@H](N)C(=O)O [Metformin alaninate, metformin alaninate] |  | 202.49 ± 12.79 | 187.52 ± 10.28 | 186.18 ± 8.04 | 200.80 ± 10.15 | 195.43 ± 11.23 | statistically significant decreases | 90.50 ± 13.72 | 94.75 ± 13.52 | 87.75 ± 9.00 | 84.00 ± 7.83 | 82.25 ± 7.68 | 126.09 | 16.40 | 14.77 ± 3.29 | 13.00 ± 1.39 | 14.97 ± 3.57 | 16.40 ± 5.23 | 3.56 ± 1.19 | 0.22 ± 0.08 | macroscopic necropsy findings ([2]; 750 mg/kg for five days): small additional lobe; Absolute body weight, Day −3 (before STZ administration) [5]: 232.07 ± 6.17 g; Absolute body weight, Day −1 [5, 12]: 208.00 ± 2.65 g; Physical form (hygroscopicity) ([6]; listed as 13. ALANINE): Hygroscopic solid; Physical form (hygroscopicity) ([6]; listed as alanine): hygroscopic; blood glucose levels 2 hours after administration on day 2 vs diabetic animals treated with vehicle ([7]; diabetic rats, 250 mg/kg as metformin base): significantly lower blood glucose levels; Blood glucose levels before TI/RI administration, Day −3 (before STZ administration) ([7]; mean ± SD): 121.33 ± 6.51 mg/dL

From patent US11510886B2, “Metformin amino acid compounds and methods of using the same” (Laboratorios Silancs S.A. DE C.V., priority 2016, dated 2022)
